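Here, GI50 denotes the concentration required for 50% inhibition of growth. TGI denotes the concentration required for complete inhibition of growth.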
Assays:
Assay in all cases: NCI tumour cell line growth inhibition, 384-well format
786-0 renal = test system: 786-0 renal
A498 renal = test system: A498 renal
A549 NSCLC = test system: A549 NSCLC
ACHN renal = test system: ACHN renal
BT-549 breast = test system: BT-549 breast
CAKI-1 renal = test system: CAKI-1 renal
COLO 205 colon = test system: COLO 205 colon
DU-145 prostate = test system: DU-145 prostate
HCC-2998 colon = test system: HCC-2998 colon
HCT-116 colon = test system: HCT-116 colon
HCT-15 colon = test system: HCT-15 colon
HL-60(TB) leukemia = test system: HL-60(TB) leukemia
HOP-62 NSCLC = test system: HOP-62 NSCLC
HOP-92 NSCLC = test system: HOP-92 NSCLC
HS 578T breast = test system: HS 578T breast
IGROV1 ovarian = test system: IGROV1 ovarian
LOX IMVI melanoma = test system: LOX IMVI melanoma
M14 melanoma = test system: M14 melanoma
MALME-3M melanoma = test system: MALME-3M melanoma
MCF7 breast = test system: MCF7 breast
MDA-MB-435 melanoma = test system: MDA-MB-435 melanoma
MDA-MB-468 breast = test system: MDA-MB-468 breast
MOLT-4 leukemia = test system: MOLT-4 leukemia
NCI-H226 lung = test system: NCI-H226 lung
NCI-H23 lung = test system: NCI-H23 lung
NCI-H322M lung = test system: NCI-H322M lung
NCI-H460 NSCLC = test system: NCI-H460 NSCLC
NCI-H522 lung = test system: NCI-H522 lung
NCI/ADR-RES ovarian = test system: NCI/ADR-RES ovarian
OVCAR-3 ovarian = test system: OVCAR-3 ovarian
OVCAR-4 ovarian = test system: OVCAR-4 ovarian
OVCAR-5 ovarian = test system: OVCAR-5 ovarian
OVCAR-8 ovarian = test system: OVCAR-8 ovarian
RXF 393 renal = test system: RXF 393 renal
SF-268 CNS = test system: SF-268 CNS
SF-295 CNS = test system: SF-295 CNS
SF-539 CNS = test system: SF-539 CNS
SK-MEL-5 melanoma = test system: SK-MEL-5 melanoma
SK-OV-3 ovarian = test system: SK-OV-3 ovarian
SN12C renal = test system: SN12C renal
SNB-19 CNS = test system: SNB-19 CNS
SNB-75 CNS = test system: SNB-75 CNS
T-47D breast = test system: T-47D breast
TK-10 renal = test system: TK-10 renal
U251 glioblastoma = test system: U251 glioblastoma
UACC-62 melanoma = test system: UACC-62 melanoma
UO-31 renal = test system: UO-31 renal

Compound `CC[C@H](NC(=O)[C@H](CS(=O)(=O)CC1CC1)N[C@@H](c1ccc(F)cc1)C(F)(F)F)C(=O)C(=O)NC1CC1` has a GI50 (786-0 renal) of over 100 µM, a TGI (786-0 renal) of over 100 µM and a GI50 (A498 renal) of over 100 µM. It also gave a TGI (A498 renal) of over 100 µM, a GI50 (A549 NSCLC) of over 100 µM and a TGI (A549 NSCLC) of over 100 µM. For the same compound, the GI50 (ACHN renal) was over 100 µM, the TGI (ACHN renal) was over 100 µM and the GI50 (BT-549 breast) was over 100 µM. For the same compound, the TGI (BT-549 breast) was over 100 µM, the GI50 (CAKI-1 renal) was over 100 µM and the TGI (CAKI-1 renal) was over 100 µM. The GI50 (COLO 205 colon) was over 100 µM, the TGI (COLO 205 colon) was over 100 µM and the GI50 (DU-145 prostate) was over 100 µM. It also gave a TGI (DU-145 prostate) of over 100 µM, a GI50 (HCC-2998 colon) of over 100 µM and a TGI (HCC-2998 colon) of over 100 µM. It also gave a GI50 (HCT-116 colon) of over 100 µM, a TGI (HCT-116 colon) of over 100 µM and a GI50 (HCT-15 colon) of over 100 µM. The TGI (HCT-15 colon) was over 100 µM, the GI50 (HL-60(TB) leukemia) was 84.2 µM and the TGI (HL-60(TB) leukemia) was over 100 µM. The GI50 (HOP-62 NSCLC) was 98.8 µM, the TGI (HOP-62 NSCLC) was over 100 µM and the GI50 (HOP-92 NSCLC) was over 100 µM. The TGI (HOP-92 NSCLC) was over 100 µM, the GI50 (HS 578T breast) was over 100 µM and the TGI (HS 578T breast) was over 100 µM. It also gave a GI50 (IGROV1 ovarian) of over 100 µM, a TGI (IGROV1 ovarian) of over 100 µM and a GI50 (LOX IMVI melanoma) of over 100 µM. For the same compound, the TGI (LOX IMVI melanoma) was over 100 µM, the GI50 (M14 melanoma) was over 100 µM and the TGI (M14 melanoma) was over 100 µM. It also gave a GI50 (MALME-3M melanoma) of over 100 µM, a TGI (MALME-3M melanoma) of over 100 µM and a GI50 (MCF7 breast) of 97.5 µM. For the same compound, the TGI (MCF7 breast) was over 100 µM, the GI50 (MDA-MB-435 melanoma) was over 100 µM and the TGI (MDA-MB-435 melanoma) was over 100 µM. The GI50 (MDA-MB-468 breast) was 22.8 µM, the TGI (MDA-MB-468 breast) was 67.5 µM and the GI50 (MOLT-4 leukemia) was 29.5 µM. It also gave a TGI (MOLT-4 leukemia) of over 100 µM, a GI50 (NCI-H226 lung) of over 71.7 µM and a TGI (NCI-H226 lung) of over 100 µM. The GI50 (NCI-H23 lung) was over 100 µM, the TGI (NCI-H23 lung) was over 100 µM and the GI50 (NCI-H322M lung) was over 100 µM. The TGI (NCI-H322M lung) was over 100 µM, the GI50 (NCI-H460 NSCLC) was over 100 µM and the TGI (NCI-H460 NSCLC) was over 100 µM. The GI50 (NCI-H522 lung) was over 100 µM, the TGI (NCI-H522 lung) was over 100 µM and the GI50 (NCI/ADR-RES ovarian) was over 100 µM. For the same compound, the TGI (NCI/ADR-RES ovarian) was over 100 µM, the GI50 (OVCAR-3 ovarian) was over 100 µM and the TGI (OVCAR-3 ovarian) was over 100 µM. It also gave a GI50 (OVCAR-4 ovarian) of over 100 µM, a TGI (OVCAR-4 ovarian) of over 100 µM and a GI50 (OVCAR-5 ovarian) of over 100 µM. The TGI (OVCAR-5 ovarian) was over 100 µM, the GI50 (OVCAR-8 ovarian) was over 100 µM and the TGI (OVCAR-8 ovarian) was over 100 µM. It also gave a GI50 (RXF 393 renal) of over 88.2 µM, a TGI (RXF 393 renal) of over 100 µM and a GI50 (SF-268 CNS) of over 51.4 µM. It also gave a TGI (SF-268 CNS) of over 93.9 µM, a GI50 (SF-295 CNS) of over 100 µM and a TGI (SF-295 CNS) of over 100 µM. It also gave a GI50 (SF-539 CNS) of over 100 µM, a TGI (SF-539 CNS) of over 100 µM and a GI50 (SK-MEL-5 melanoma) of over 100 µM. For the same compound, the TGI (SK-MEL-5 melanoma) was over 100 µM, the GI50 (SK-OV-3 ovarian) was over 100 µM and the TGI (SK-OV-3 ovarian) was over 100 µM. For the same compound, the GI50 (SN12C renal) was over 100 µM, the TGI (SN12C renal) was over 100 µM and the GI50 (SNB-19 CNS) was over 100 µM. For the same compound, the TGI (SNB-19 CNS) was over 100 µM, the GI50 (SNB-75 CNS) was over 89.5 µM and the TGI (SNB-75 CNS) was over 100 µM. The GI50 (T-47D breast) was over 59.9 µM, the TGI (T-47D breast) was over 100 µM and the GI50 (TK-10 renal) was over 100 µM. For the same compound, the TGI (TK-10 renal) was over 100 µM, the GI50 (U251 glioblastoma) was over 100 µM and the TGI (U251 glioblastoma) was over 100 µM. For the same compound, the GI50 (UACC-62 melanoma) was over 100 µM, the TGI (UACC-62 melanoma) was over 100 µM and the GI50 (UO-31 renal) was over 100 µM. The TGI (UO-31 renal) was over 100 µM.
